Earlier results, collected in patent US11980186B2, “Preparation method of eucalyptol emulsion and application thereof in biopesticides” (Jiangnan University, priority 2021, dated 2024).
Values after ≈ are worked out from the molar mass of the structure shown.

Test system: B. tabaci
Conditions: literature value

In the case of `O=C1CCC[C@@H]2[C@H]3CCCN4CCC[C@@H](CN12)[C@@H]34` [matrine], the “LC50 against the B. tabaci” value is given as 13.35 µg/mL (≈ 53.8 µM).
